What is called Ki is the equilibrium dissociation constant of an inhibitor or competing ligand from its target.

The target of experiment [1] is human vasopressin V1a receptor (Homo sapiens (Human), UniProt P37288). The experiment is described as follows: Vasopressin V1a receptor binding assay. The note with it: selectivity quotient, human V1a vs human V1b receptor. The method, then: The test substances were dissolved in a concentration of 5 mM M in DMSO. Further dilution of these DMSO solutions took place as described for V1b.
Sequence of human vasopressin V1a receptor (P37288 whole entry): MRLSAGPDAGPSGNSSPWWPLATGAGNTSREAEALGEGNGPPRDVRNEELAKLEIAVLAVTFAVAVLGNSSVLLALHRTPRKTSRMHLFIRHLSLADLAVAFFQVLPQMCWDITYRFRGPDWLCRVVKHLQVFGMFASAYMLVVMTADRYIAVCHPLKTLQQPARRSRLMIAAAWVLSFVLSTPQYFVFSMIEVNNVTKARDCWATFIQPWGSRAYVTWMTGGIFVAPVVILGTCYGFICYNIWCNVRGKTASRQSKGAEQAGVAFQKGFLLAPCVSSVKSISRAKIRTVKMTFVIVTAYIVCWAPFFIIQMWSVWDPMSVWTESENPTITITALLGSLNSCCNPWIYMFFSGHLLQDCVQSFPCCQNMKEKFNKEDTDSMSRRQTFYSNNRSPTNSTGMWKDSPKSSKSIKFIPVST
The membrane pellet was again homogenized in a High-Pressure-Homogenizer, Polytec 50K at 1500 PSI (Heinemann, Germany) and subsequently taken up in 50 mM Tris-HCl, pH 7.4, homogenized and stored in aliquots frozen in liquid nitrogen at −190° C.
(§1) The incubation buffer was: 50 mM Tris, 10 mM MgCl2, 0.1% BSA, pH 7.4.
Duplicate determinations were carried out.
After incubation (60 minutes at room temperature), the samples were processed as described for V1b.
(§2) The binding parameters were calculated by nonlinear regression in SAS.

Experiment [2] addresses human vasopressin V1b receptor (Homo sapiens (Human), UniProt P47901). The experiment is described as follows: Vasopressin V1b receptor binding assay. Particulars: membranes from CHO-K1 cells, displacement of 3H-AVP. The method, then: The test substances were dissolved in a concentration of 5 mM in 100% DMSO and further diluted to 5×10^−4 M to 5×10^−9 M. These serial DMSO predilutions were diluted 1:10 with assay buffer. The substance concentration was further diluted 1:5 in the assay mixture resulting in 2% DMSO in the mixture. All dilutions were performed in a Biomek NX automation workstation (Beckman)
The membrane pellet was again homogenized and centrifuged as described and subsequently taken up in 50 mM Tris-HCl, pH 7.4, homogenized and stored in aliquots frozen in liquid nitrogen at −190° C.
as §1
All determinations were carried out as duplicate determinations. […] The liquid scintillation measurement took place in a Microbeta TriLux 12 (Wallac). Analysis:
as §2

Sequence of human vasopressin V1b receptor (P47901 whole entry): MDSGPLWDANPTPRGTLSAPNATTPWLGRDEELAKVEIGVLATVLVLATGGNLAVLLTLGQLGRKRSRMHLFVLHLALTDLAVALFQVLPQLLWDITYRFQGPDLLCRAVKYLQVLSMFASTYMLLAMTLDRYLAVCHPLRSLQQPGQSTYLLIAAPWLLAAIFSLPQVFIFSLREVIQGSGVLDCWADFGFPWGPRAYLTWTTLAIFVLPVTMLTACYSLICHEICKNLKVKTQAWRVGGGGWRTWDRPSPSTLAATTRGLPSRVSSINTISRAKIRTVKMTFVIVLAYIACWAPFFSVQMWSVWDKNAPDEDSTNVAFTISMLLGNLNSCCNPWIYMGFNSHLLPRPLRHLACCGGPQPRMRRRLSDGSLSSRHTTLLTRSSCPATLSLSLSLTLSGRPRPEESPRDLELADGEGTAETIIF

`CCOc1ccc(OC)cc1C1(N2CC3(CN(C4CCN(C)CC4)C3)C2)C(=O)N(S(=O)(=O)c2ccc(OC)cn2)c2ccc(C#N)cc21` (racemic) [Example 1, (±)-3-(2-ethoxy-5-methoxy-phenyl)-1-[(5-methoxy-2-pyridyl)sulfonyl]-3-[2-(1-methyl-4-piperidyl)-2,6-diazaspiro[3.3]heptan-6-yl]-2-oxo-indoline-5-carbonitrile]: the “Ki(h-V1a)/ Ki(h-V1b)” value in experiment [1] is “+++ (>75)”. In experiment [2], this compound displayed a Ki of 1 to 10 nM.
For the compound `CCOc1ccc(OC)cc1C1(N2CC3(CN(C4CCN(C)CC4)C3)C2)C(=O)N(S(=O)(=O)c2ccc(OC)cc2OC)c2ccc(C#N)cc21` (racemic) [Example 2, (±)-1-(2,4-dimethoxyphenyl)sulfonyl-3-(2-ethoxy-5-methoxy-phenyl)-3-[2-(1-methyl-4-piperidyl)-2,6-diazaspiro[3.3]heptan-6-yl]-2-oxo-indoline-5-carbonitrile], the “Ki(h-V1a)/ Ki(h-V1b)” value in experiment [1] is “++ (25-75)”. For the same compound, the Ki in experiment [2] lay within 10 to 100 nM.
For `CCOc1ccc(OC)cc1C1(N2CC3(CN(C4CCN(C)CC4)C3)C2)C(=O)N(S(=O)(=O)c2cccc3cccnc23)c2ccc(C#N)cc21` (racemic) [Example 3, (±)-3-(2-ethoxy-5-methoxy-phenyl)-3-[2-(1-methyl-4-piperidyl)-2,6-diazaspiro[3.3]heptan-6-yl]-2-oxo-1-(8-quinolylsulfonyl)indoline-5-carbonitrile], in that order: “+++ (>75)” and 10 to 100 nM.
On to `CCOc1ccc(OC)cc1C1(N2CC3(CN(C4CCN(C)CC4)C3)C2)C(=O)N(S(=O)(=O)c2ccc(OC)cc2)c2ccc(C#N)cc21` (racemic) [Example 5, (±)-3-(2-ethoxy-5-methoxy-phenyl)-1-(4-methoxyphenyl)sulfonyl-3-[2-(1-methyl-4-piperidyl)-2,6-diazaspiro[3.3]heptan-6-yl]-2-oxo-indoline-5-carbonitrile], for which the “Ki(h-V1a)/ Ki(h-V1b)” value in experiment [1] is reported as “+ (10-<25)”. The same compound displayed a Ki in experiment [2] of 1 to 10 nM.
On the same counts, the results for `CCOc1cc(F)ccc1C1(N2CC3(CN(C4CCN(C)CC4)C3)C2)C(=O)N(S(=O)(=O)c2ccc(OC)cn2)c2ccc(C#N)cc21` (racemic) [Example 7, (±)-3-(2-ethoxy-4-fluoro-phenyl)-1-[(5-methoxy-2-pyridyl)sulfonyl]-3-[2-(1-methyl-4-piperidyl)-2,6-diazaspiro[3.3]heptan-6-yl]-2-oxo-indoline-5-carbonitrile] are “+++ (>75)” and 1 to 10 nM.
For `CCOc1ccccc1C1(N2CC3(CN(C4CCN(C)CC4)C3)C2)C(=O)N(S(=O)(=O)c2ccc(OC)cn2)c2ccc(C#N)cc21` (racemic) [Example 8, (±)-3-(2-ethoxyphenyl)-1-[(5-methoxy-2-pyridyl)sulfonyl]-3-[2-(1-methyl-4-piperidyl)-2,6-diazaspiro[3.3]heptan-6-yl]-2-oxo-indoline-5-carbonitrile], in that order: “+++ (>75)” and 1 to 10 nM.
For `CCOc1ncccc1C1(N2CC3(CN(C4CCN(C)CC4)C3)C2)C(=O)N(S(=O)(=O)c2ccc(OC)cn2)c2ccc(C#N)cc21` (racemic) [Example 9, (±)-3-(2-ethoxy-3-pyridyl)-1-[(5-methoxy-2-pyridyl)sulfonyl]-3-[2-(1-methyl-4-piperidyl)-2,6-diazaspiro[3.3]heptan-6-yl]-2-oxo-indoline-5-carbonitrile], in that order: “+++ (>75)” and 1 to 10 nM.
For the compound `CCOc1ccc(OC)cc1C1(N2CC3(CN(C4CCN(C5COC5)CC4)C3)C2)C(=O)N(S(=O)(=O)c2ccc(OC)cn2)c2ccc(C#N)cc21` (racemic) [Example 10, (±)-3-(2-ethoxy-5-methoxy-phenyl)-1-[(5-methoxy-2-pyridyl)sulfonyl]-3-[2-[1-(oxetan-3-yl)-4-piperidyl]-2,6-diazaspiro[3.3]heptan-6-yl]-2-oxo-indoline-5-carbonitrile], in experiment [1], the “Ki(h-V1a)/ Ki(h-V1b)” value was “+++ (>75)”. In experiment [2], the Ki was 1 to 10 nM.
For `CCOc1ncccc1C1(N2CC3(CN(C4CCN(C)CC4)C3)C2)C(=O)N(S(=O)(=O)c2ccc(OC)cc2)c2ccc(C#N)cc21` (racemic) [Example 12, (±)-3-(2-ethoxy-3-pyridyl)-1-(4-methoxyphenyl)sulfonyl-3-[2-(1-methyl-4-piperidyl)-2,6-diazaspiro[3.3]heptan-6-yl]-2-oxo-indoline-5-carbonitrile], the Ki in experiment [2] lay in the range of 10 to 100 nM.
For `CCOc1ccc(OC)cc1C1(N2CC3(CN(C4CCN(C)CC4)C3)C2)C(=O)N(S(=O)(=O)c2ccc(C#N)cc2)c2ccc(C#N)cc21` (racemic) [Example 14, (±)-1-(4-cyanophenyl)sulfonyl-3-(2-ethoxy-5-methoxy-phenyl)-3-[2-(1-methyl-4-piperidyl)-2,6-diazaspiro[3.3]heptan-6-yl]-2-oxo-indoline-5-carbonitrile], the “Ki(h-V1a)/ Ki(h-V1b)” value in experiment [1] is on record as “+++ (>75)”. Besides, the Ki in experiment [2] lay within 10 to 100 nM.
For `CCOc1ccc(OC)cc1C1(N2CC3(CN(C4CCN(C)CC4)C3)C2)C(=O)N(S(=O)(=O)c2ccc(C)cc2)c2ccc(C#N)cc21` (racemic) [Example 15, (±)-3-(2-ethoxy-5-methoxy-phenyl)-3-[2-(1-methyl-4-piperidyl)-2,6-diazaspiro[3.3]heptan-6-yl]-2-oxo-1-(p-tolylsulfonyl)indoline-5-carbonitrile], in that order: “++ (25-75)” and 10 to 100 nM.
On the same counts, the results for `CCOc1ccc(OC)cc1C1(N2CC3(CN(C4CCN(C)CC4)C3)C2)C(=O)N(S(=O)(=O)c2ccc(F)cc2)c2ccc(C#N)cc21` (racemic) [Example 16, (±)-3-(2-ethoxy-5-methoxy-phenyl)-1-(4-fluorophenyl)sulfonyl-3-[2-(1-methyl-4-piperidyl)-2,6-diazaspiro[3.3]heptan-6-yl]-2-oxo-indoline-5-carbonitrile] are “++ (25-75)” and 10 to 100 nM.
Take `CCOc1ccc(OC)cc1C1(N2CC3(CN(C4CCN(C)CC4)C3)C2)C(=O)N(S(=O)(=O)c2ccc(OC)cn2)c2cc(C#N)ccc21` (racemic) [Example 29, (±)-3-(2-ethoxy-5-methoxy-phenyl)-1-[(5-methoxy-2-pyridyl)sulfonyl]-3-[2-(1-methyl-4-piperidyl)-2,6-diazaspiro[3.3]heptan-6-yl]-2-oxo-indoline-6-carbonitrile]: the Ki in experiment [2] is 1 to 10 nM.
Same read-out and setting: for `CCOc1ccc(OC)cc1C1(N2CC3(CN(C4CCN(C)CC4)C3)C2)C(=O)N(S(=O)(=O)c2ccc(OC)cc2)c2ccc(C#N)cc21` (single isomer, unassigned; (-)) [Example 6, (−)-3-(2-ethoxy-5-methoxy-phenyl)-1-(4-methoxyphenyl)sulfonyl-3-[2-(1-methyl-4-piperidyl)-2,6-diazaspiro[3.3]heptan-6-yl]-2-oxo-indoline-5-carbonitrile] the value was 10 to 100 nM; for `CCOc1ccc(OC)cc1[C@]1(N2CC3(CN(C4CCN(C)CC4)C3)C2)C(=O)N(S(=O)(=O)c2cccc(OC)n2)c2ccc(C#N)cc21` [Example 32, (3S)-3-(2-ethoxy-5-methoxy-phenyl)-1-[(6-methoxy-2-pyridyl)sulfonyl]-3-[2-(1-methyl-4-piperidyl)-2,6-diazaspiro[3.3]heptan-6-yl]-2-oxo-indoline-5-carbonitrile], 10 to 100 nM.

Values taken from patent US9688678B2, “Oxindole compounds carrying a nitrogen-bound spiro substituent and use thereof for treating vasopressin-related diseases” (AbbVie Deutschland GmbH & Co. KG, priority 2014, dated 2017).
